# Assay results published in patent US20130030172A1, “Methods of Preparing Quinoline Derivatives” (Exelixis, Inc., priority 2008, published 2013).
# Key:
# c-Met = c-Met (Homo sapiens, UniProt P08581); assay: c-Met kinase assay as described in WO 2005/030140 A2; type: biochemical; conditions: assays described in WO 2005/030140 A2
# Source text: (§1) Other utilities of this compound are further described in WO 2005/030140 A2.
# c-Kit = c-Kit (Homo sapiens, UniProt P10721); assay: c-Kit kinase assay as described in WO 2005/030140 A2; type: biochemical; conditions: assays described in WO 2005/030140 A2
# c-Kit, sequence (P10721 26-976): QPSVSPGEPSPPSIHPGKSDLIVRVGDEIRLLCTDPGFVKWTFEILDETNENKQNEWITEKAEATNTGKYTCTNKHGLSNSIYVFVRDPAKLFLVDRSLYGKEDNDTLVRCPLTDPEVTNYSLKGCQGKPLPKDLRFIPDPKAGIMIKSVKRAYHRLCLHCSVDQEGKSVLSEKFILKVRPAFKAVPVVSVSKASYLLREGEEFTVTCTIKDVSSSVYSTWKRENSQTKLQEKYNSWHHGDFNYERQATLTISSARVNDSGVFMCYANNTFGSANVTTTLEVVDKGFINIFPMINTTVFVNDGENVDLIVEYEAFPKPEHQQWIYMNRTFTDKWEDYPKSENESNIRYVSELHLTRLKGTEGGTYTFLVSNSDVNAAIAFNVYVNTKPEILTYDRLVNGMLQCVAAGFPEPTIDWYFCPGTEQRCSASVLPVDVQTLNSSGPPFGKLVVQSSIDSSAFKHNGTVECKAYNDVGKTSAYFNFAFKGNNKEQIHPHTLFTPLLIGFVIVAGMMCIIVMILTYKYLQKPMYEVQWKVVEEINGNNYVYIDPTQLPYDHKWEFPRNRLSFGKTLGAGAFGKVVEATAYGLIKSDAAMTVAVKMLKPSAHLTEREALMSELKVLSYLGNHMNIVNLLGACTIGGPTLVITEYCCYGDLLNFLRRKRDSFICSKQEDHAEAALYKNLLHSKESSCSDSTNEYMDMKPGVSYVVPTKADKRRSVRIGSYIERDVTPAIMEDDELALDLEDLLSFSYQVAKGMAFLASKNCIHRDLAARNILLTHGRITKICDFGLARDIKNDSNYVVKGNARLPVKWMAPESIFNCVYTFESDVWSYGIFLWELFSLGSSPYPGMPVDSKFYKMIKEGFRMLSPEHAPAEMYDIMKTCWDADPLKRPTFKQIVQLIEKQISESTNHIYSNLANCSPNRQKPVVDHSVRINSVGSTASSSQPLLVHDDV
# Source text: as §1
# c-Met, sequence (P08581 25-1390): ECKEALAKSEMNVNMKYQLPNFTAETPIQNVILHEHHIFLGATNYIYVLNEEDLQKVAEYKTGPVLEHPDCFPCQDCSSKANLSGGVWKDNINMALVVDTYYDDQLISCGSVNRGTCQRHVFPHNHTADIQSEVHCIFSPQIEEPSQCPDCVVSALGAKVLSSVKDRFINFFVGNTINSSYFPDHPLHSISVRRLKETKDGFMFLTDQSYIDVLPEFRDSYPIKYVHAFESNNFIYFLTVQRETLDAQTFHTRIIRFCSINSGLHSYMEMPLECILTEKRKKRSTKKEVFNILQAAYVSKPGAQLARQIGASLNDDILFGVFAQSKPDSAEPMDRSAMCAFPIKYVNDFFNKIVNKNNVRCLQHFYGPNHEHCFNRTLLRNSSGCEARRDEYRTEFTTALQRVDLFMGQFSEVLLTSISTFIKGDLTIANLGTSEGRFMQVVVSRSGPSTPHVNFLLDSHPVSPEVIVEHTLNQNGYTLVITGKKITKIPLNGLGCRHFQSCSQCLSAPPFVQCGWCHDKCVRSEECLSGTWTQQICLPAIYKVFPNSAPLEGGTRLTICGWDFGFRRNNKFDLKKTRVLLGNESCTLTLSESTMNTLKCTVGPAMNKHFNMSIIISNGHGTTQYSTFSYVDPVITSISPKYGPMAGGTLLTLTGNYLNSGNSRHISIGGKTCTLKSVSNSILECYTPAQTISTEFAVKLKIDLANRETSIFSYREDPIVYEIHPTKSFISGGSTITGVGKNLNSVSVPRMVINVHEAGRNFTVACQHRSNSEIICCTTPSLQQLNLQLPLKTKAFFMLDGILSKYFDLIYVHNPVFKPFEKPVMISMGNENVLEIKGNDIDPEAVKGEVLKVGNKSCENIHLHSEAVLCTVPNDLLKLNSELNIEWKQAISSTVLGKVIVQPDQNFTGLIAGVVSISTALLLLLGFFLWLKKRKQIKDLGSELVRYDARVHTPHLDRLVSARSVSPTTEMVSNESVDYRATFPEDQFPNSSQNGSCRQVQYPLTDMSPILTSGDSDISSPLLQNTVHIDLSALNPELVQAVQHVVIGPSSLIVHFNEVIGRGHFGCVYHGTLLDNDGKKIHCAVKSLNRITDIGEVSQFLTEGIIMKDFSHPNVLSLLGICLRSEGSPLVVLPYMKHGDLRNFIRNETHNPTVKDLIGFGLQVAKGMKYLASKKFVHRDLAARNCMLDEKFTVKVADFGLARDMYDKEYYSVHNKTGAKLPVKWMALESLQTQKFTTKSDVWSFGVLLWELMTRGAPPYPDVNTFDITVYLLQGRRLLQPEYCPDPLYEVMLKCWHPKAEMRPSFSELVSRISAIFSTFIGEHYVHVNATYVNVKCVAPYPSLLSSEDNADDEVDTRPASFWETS
structure (smiles),measurement,setting,value
"COc1cc2c(Oc3ccc(NC(=O)C(=O)NCCc4ccccc4)cc3F)ccnc2cc1OCCCN1CCOCC1 [title compound, N-{3-Fluoro-4-[6-methoxy-7-(3-morpholin-4-yl-propoxy)-quinolin-4-yloxy]-phenyl}-N′-phenethyl-oxalamide]",IC50,c-Met,< 50 nM
same,IC50,c-Kit,< 50 nM
